Experimental findings from US4200646A, “Method of controlling the growth of microorganisms using nitroalkyl thiocyanates” (International Minerals & Chemical Corporation, priority 1979, dated 1980) are described below.

Broadly, the LD50 is the dose expected to kill half of the subjects tested.

One data set deals with bacteria and fungi. The experiment in a line: Antimicrobial activity against bacteria and fungi. The class given is cell-based.
In another data set the test system is microorganisms. The experiment in a line: Control of growth of microorganisms in metal working fluids. Conditions: 500-1000 ppm or more.
The next data set concerns Staphyloccus aureus. Briefly: Tube dilution method, minimum inhibitory concentration. The class given is cell-based.
Data set [1] in a line: LD50 in mice by oral administration. Conditions: mouse, in vivo. How it is done: The LD50 in mice by oral administration was determined to be 500 mg/kg.
Another data set has as its system Escherichia coli. Briefly: Tube dilution method, minimum inhibitory concentration. Format: cell-based.
For data set [2], the system named is Pasteurella pseudotuberculosis. The experiment in a line: microbe, parasite or virus in culture. Format: cell-based. Conditions: Yersinia pseudotuberculosis, pH 7.3, read-out: Inhibitory Concn (minimum inhibitory concentration).
For a further data set, the system named is Aspergillus fumigatus. The experiment in a line: Tube dilution method, minimum inhibitory concentration. Format: cell-based.
For a further data set, the system named is Shigella dysenteriae. Described as above. Conditions: pH 7.3, read-out: Inhibitory Concn (minimum inhibitory concentration). The class given is cell-based.
Another data set deals with Mycobacterium ranae. The description is as above. The class given is cell-based.
The next data set has as its system Penicillium sp. The data set is described as above. Format: cell-based.
A further data set deals with Aspergillus niger. The description is as above. The class given is cell-based.
The next data set deals with Candida albicans. The data set is described as above. Format: cell-based.
The subject of another data set is Streptococcus fecalis. The data set is described as above. The class given is cell-based.
For data set [3], the system named is Streptococcus hemolyticus. The data set is described as above. The class given is cell-based. Conditions: Streptococcus pyogenes.
The subject of another data set is Pseudomonas aeruginosa. Described as above. Format: cell-based.
A further data set relates to microbial contamination. The experiment in a line: Microbial contamination of cutting oil emulsion in use. Conditions: emulsion with P-2216 0.1, light mineral oil 20, water 76.9, emulsifying agent 3 parts. How it is done:
A cutting oil emulsion is prepared according to the following formula: […]
Light mineral oil 20 parts

[4] abbreviates: trypticase soya broth pH 7.3, range between highest concentration permitting growth and lowest preventing growth, read-out: Inhibitory Concn (minimum inhibitory concentration).
Where [5] appears, read: Sabouraud broth pH 5.6, range between highest concentration permitting growth and lowest preventing growth, read-out: Inhibitory Concn (minimum inhibitory concentration).
Where [6] appears, read: pH 7.3, read-out: Inhibitory Concn (minimum inhibitory concentration).
[7] abbreviates: pH 5.6, read-out: Inhibitory Concn (minimum inhibitory concentration).

The structures appear in SMILES notation. Converted amounts (≈) assume the structure as drawn. “Also recorded” adds a separate entry of the source. Like-named read-outs stand apart in the source and are kept apart here.

For the compound `CCC(SC#N)[N+](=O)[O-]` (centres unmarked) [1-nitropropyl thiocyanate], the “antimicrobial activity (in words)” value with bacteria and fungi was “effective against a wide spectrum of bacteria and fungi”. For the same compound, the “control of growth of microorganisms in metal working fluids” value (“control of growth of microorganisms” for short) in the data set with microorganisms is on record as “controls the growth of microorganisms for a prolonged period”.

In the case of `N#CSC1([N+](=O)[O-])CCCCC1` [Example P-2217, 1-nitrocyclohexyl thiocyanate], the MIC with Staphyloccus aureus (Staphyloccus aureus, trypticase soya broth pH 7.3, range between highest concentration permitting growth and lowest preventing growth, read-out: Inhibitory Concn (minimum inhibitory concentration)) fell in the range of 1 to 10 µg/mL (≈ 5.37 to 53.7 µM); with Escherichia coli (setting [4]) it was 10 to 50 µg/mL (≈ 53.7 to 268 µM); in data set [2], 10 to 50 µg/mL (≈ 53.7 to 268 µM); with Aspergillus fumigatus (setting [5]) it was 1 to 10 µg/mL (≈ 5.37 to 53.7 µM); in the data set with Shigella dysenteriae it was 50 to 100 µg/mL (≈ 268 to 537 µM); in the data set with Mycobacterium ranae (Mycobacterium ranae, trypticase soya broth pH 7.3, range between highest concentration permitting growth and lowest preventing growth, read-out: Inhibitory Concn (minimum inhibitory concentration)), 1 to 10 µg/mL (≈ 5.37 to 53.7 µM). The MIC was 10 to 50 µg/mL (≈ 53.7 to 268 µM) in the data set with Penicillium sp. (Penicillium sp., Sabouraud broth pH 5.6, range between highest concentration permitting growth and lowest preventing growth, read-out: Inhibitory Concn (minimum inhibitory concentration)); 10 to 50 µg/mL (≈ 53.7 to 268 µM) in the data set with Aspergillus niger (setting [5]); 10 to 50 µg/mL (≈ 53.7 to 268 µM) with Candida albicans (setting [5]); 50 to 100 µg/mL (≈ 268 to 537 µM) with Streptococcus fecalis (Streptococcus fecalis, trypticase soya broth pH 7.3, range between highest concentration permitting growth and lowest preventing growth, read-out: Inhibitory Concn (minimum inhibitory concentration)); 50 to 100 µg/mL (≈ 268 to 537 µM) in data set [3] (Streptococcus hemolyticus, trypticase soya broth pH 7.3, range between highest concentration permitting growth and lowest preventing growth, read-out: Inhibitory Concn (minimum inhibitory concentration)); 10 to 50 µg/mL (≈ 53.7 to 268 µM) with Pseudomonas aeruginosa (setting [4]). Further, in data set [1] (oral, species not restated in Example 5 (mice in Example 1), read-out: oral LD50), the LD50 is 150 mg/kg. In addition, the “antimicrobial activity (in words)” value with bacteria and fungi was “effective against both bacteria and fungi; also recorded: effective against a wide spectrum of bacteria and fungi”. In addition, the “control of growth of microorganisms” value in the data set on microorganisms is given as “controls the growth of microorganisms for a prolonged period”.

`CC(SC#N)[N+](=O)[O-]` (centres unmarked) [1-nitroethyl thiocyanate]: in the data set with bacteria and fungi, the “antimicrobial activity (in words)” value is “effective against a wide spectrum of bacteria and fungi”. In the data set on microorganisms, the “control of growth of microorganisms” value is reported as “controls the growth of microorganisms for a prolonged period”.

For the compound `N#CSC[N+](=O)[O-]` [nitromethyl thiocyanate], the “antimicrobial activity (in words)” value in the data set on bacteria and fungi was “effective against a wide spectrum of bacteria and fungi”. The “control of growth of microorganisms” value in the data set with microorganisms is listed as “controls the growth of microorganisms for a prolonged period”.

Regarding `CC(C)(SC#N)[N+](=O)[O-]` [Example P-2216, 1-methyl-1-nitroethyl thiocyanate], the MIC in the data set with Staphyloccus aureus (setting [6]) was 1 to 10 µg/mL (≈ 6.84 to 68.4 µM); in the data set with Escherichia coli (setting [6]) it was 10 to 50 µg/mL (≈ 68.4 to 342 µM); in data set [2], 1 to 10 µg/mL (≈ 6.84 to 68.4 µM); in the data set with Aspergillus fumigatus (setting [7]), 1 to 10 µg/mL (≈ 6.84 to 68.4 µM); in the data set with Shigella dysenteriae it was 10 to 50 µg/mL (≈ 68.4 to 342 µM); in the data set with Mycobacterium ranae (Mycobacterium, pH 7.3, read-out: Inhibitory Concn (minimum inhibitory concentration)), 1 to 10 µg/mL (≈ 6.84 to 68.4 µM). The MIC lay in the range of 10 to 50 µg/mL (≈ 68.4 to 342 µM) with Penicillium sp. (Penicillium, pH 5.6, read-out: Inhibitory Concn (minimum inhibitory concentration)); 10 to 50 µg/mL (≈ 68.4 to 342 µM) in the data set on Aspergillus niger (setting [7]); 1 to 10 µg/mL (≈ 6.84 to 68.4 µM) in the data set on Candida albicans (setting [7]); 50 to 100 µg/mL (≈ 342 to 684 µM) in the data set with Streptococcus fecalis (Streptococcus, pH 7.3, read-out: Inhibitory Concn (minimum inhibitory concentration)); 50 to 100 µg/mL (≈ 342 to 684 µM) in data set [3] (setting [6]); 10 to 50 µg/mL (≈ 68.4 to 342 µM) with Pseudomonas aeruginosa (setting [6]). Further, the LD50 in [1] (mice, oral administration, read-out: LD50) is 500 mg/kg. In the data set with microbial contamination, the “freedom from microbial contamination when used as a cutting oil” value was “remains free from microbial contamination for a long period of time”.
